Assay type in all cases: cell-based
In experiment [1] the test system is H522 lung cancer cell line. The experiment can be described thus: Antiproliferative bioassay, H522 lung cancer cell line.
The subject of experiment [2] is A2780 human ovarian cancer cell line. Kind of experiment: Antiproliferative bioassay, A2780 ovarian cancer cell line. The settings on record: for IC50: read-out: IC50 (μM) A2780, A2780 ovarian cancer cells, mean of three replicates.
Another experiment has as its system A2058 melanoma cell line. The experiment can be described thus: Antiproliferative bioassay, A2058 melanoma cell line.
Setting [3] is: read-out: IC50 (μM) H522, H522 lung cancer cells.

Where two headings read alike, the source gives them in different places.

The term IC50 denotes the point on the concentration scale where inhibition reaches its midpoint. For `CC(=O)OC[C@H]1O[C@@H](O[C@H]2CC[C@]3(C)[C@H]4CC=C5[C@@H]6CC(C)(C)CC[C@]6(C(=O)O)CC[C@@]5(C)[C@]4(C)CC[C@H]3C2(C)C)[C@H](O)[C@@H](O[C@@H]2O[C@H](CO)[C@@H](O)[C@H](O)[C@H]2O)[C@@H]1O` [Compound 3, oleanolic acid-3-O-β-D-glucopyranosyl-(1→3)-(6″-O-acetyl)-β-D-glucopyranoside], the IC50 in experiment [1] (setting [3]) is above 10 µM; in experiment [2], 1.2 ± 0.3 µM. Further, the “inhibition of the proliferation of A2780 cells (in words)” value in experiment [2] is recorded as “selectively inhibit the proliferation of A2780 ovarian cancer cells”.

On to “oleanolic acid-3-O-β-D-glucopyranosyl-(1→3)-(2″-O-acetyl)-β-D-glucopyranoside [Compound 2]”, for which the IC50 in experiment [1] (setting [3]) is above 10 µM. Besides, in experiment [2], the “inhibition of the proliferation of A2780 cells (in words)” value is reported as “selectively inhibit the proliferation of A2780 ovarian cancer cells” and the IC50 was 1.7 ± 0.1 µM.

Turning to “oleanolic acid-3-O-β-D-glucopyranosyl- (1→3)-β-D-glucopyranoside [Compound 1]”, the IC50 with A2058 melanoma cell line (read-out: IC50 (μM) A2058, A2058 melanoma cells) worked out at 7.63 µM; in experiment [1] (setting [3]) it was 7.32 µM; in experiment [2], 2.2 ± 0.2 µM.

For the compound `CC[C@]1(O)C[C@@H]2CN(CCc3c([nH]c4ccccc34)[C@@](C(=O)OC)(c3cc4c(cc3OC)N(C)[C@H]3[C@@](O)(C(=O)OC)[C@H](OC(C)=O)[C@]5(CC)C=CCN6CC[C@]43[C@@H]65)C2)C1` [Vinblastine, reference compound], the IC50 came to 0.004 µM in the experiment on A2058 melanoma cell line (Homo sapiens, A2058, read-out: IC50 (μM) A2058) and 0.009 µM in experiment [1] (Homo sapiens, NCI-H522, read-out: IC50 (μM) H522).

For the origin of these results see article PMC3928794 (Chemistry & biodiversity, 2013).
